Assay results: patent US20210247386A1, “A DEVICE AND METHOD FOR DETERMINING CELL INDENTATION ACTIVITY” (TECHNION RESEARCH & DEVELOPMENT FOUNDATION LIMITED, priority 2018, published 2021)
“Also recorded” adds a separate entry of the source.

Tests used:
[1] = system: pancreatic cancer cell lines; assay: Gel indentation assay of pancreatic cancer cell lines on PAM gel after Taxol treatment; format: cell-based, human; details: Taxol 25 μM for 1-2 hr, PAM gel with Young's modulus 2.4 kPa, versus untreated cells
Description: (§1) The inventors used various commercially- or otherwise-available, human, epithelial breast and pancreatic cancer and benign cell lines (all from ATCC, Manassas, Va.). For breast cancer cells, the inventors used three cell lines: high metastatic potential (MP, MDA-MB-231) and low MP (MDA-MB-468) breast cancer cells that had been collected from lung metastases, and benign fibrocystic cells (MCF-10A) as control. In addition, the inventors used a high MP breast cancer LM2-4 cell-line that was developed by collecting twice metastasized cells from the human MDA-MB-231 cell line after being seeded in mice. […]
(§2) The inventors seeded 3×10^5 cells on each gel within the respective media, resulting in an average of 25±5 cells per field-of-view (area of 0.016 mm^2). […] The focal depth of each image was recorded independently during the experiment, following manual focusing, using an automated, computer-controlled microscope stage. […]
(§3) At each measurement time-point, locations on the gel were randomly chosen and at least 3 images were taken: (i) a DIC image of the cells on the gel, (ii) a fluorescence image of the particles embedded at the focal plane of the gel surface, and (iii) a series of fluorescence images at the lowest focal depth where particles were observed, to identify each indenting cells' depth. […]

breast cancer cell lines = assay: Gel indentation assay of breast cancer cell lines on PAM gel after Taxol treatment; format: cell-based, human; details: Taxol 25 μM for 1-2 hr, PAM gel with Young's modulus 2.4 kPa, versus untreated cells
Description: as §1, §2, §3

CC(=O)O[C@H]1C(=O)[C@@]2(C)[C@H]([C@H](OC(=O)c3ccccc3)[C@]3(O)C[C@H](OC(=O)[C@H](O)[C@@H](NC(=O)c4ccccc4)c4ccccc4)C(C)=C1C3(C)C)[C@]1(OC(C)=O)CO[C@@H]1C[C@@H]2O [Taxol, Paclitaxel]
reduction; also recorded: reduced: attained indentation depths [1] | percentage of indenting cells [1] | attained indentation depths (breast cancer cell lines) | percentage of indenting cells (breast cancer cell lines)
